Measurements reported in patent publication US20240334933A1, “USE OF COMPOSITIONS WITH ETHOFUMESATE AND BIXLOZONE IN WHEAT CROPS” (BAYER AKTIENGESELLSCHAFT, priority 2021, published 2024).
Like-named read-outs stand apart in the source and are kept apart here.

Legend:
[1] = tested on: volunteer wheat (Triticum aestivum L.); settings: cited from earlier work
[2] = tested on: annual bluegrass (Poa annua L.); settings: pre-emergence or early post-emergence at 0.8 to 4.5 kg/ha; cited from earlier work
[3] = tested on: barley and wheat; settings: greenhouse studies; cited from earlier work
[4] = tested on: corn; settings: applied 3 weeks before planting at rates of 2.2 to 9.0 kg/ha; cited from earlier work
[5] = tested on: wheat crop plants; assay: Own experiments: safening effect of mefenpyr-diethyl used with flufenacet; format: in vivo; settings: used with flufenacet (WSSA group 15 herbicide)

| SMILES | control of volunteer wheat ([1]; 1.7 kg/ha or more, wheat in the one- to three-leaf stage) | control of volunteer wheat ([1]; applied pre-emergence soon after planting or at the end of November to wheat in the four-leaf to four-tiller stage) | control of annual bluegrass [2] | susceptibility of barley and wheat to soil residues relative to corn [3] | corn yields [4] | safening effect in wheat crop plants [5] |
| --- | --- | --- | --- | --- | --- | --- |
| CCOC1Oc2ccc(OS(C)(=O)=O)cc2C1(C)C (stereo not drawn) [Ethofumesate, 2-ethoxy-2,3-dihydro-3,3-dimethylbenzofuran-5-yl methanesulfonate] | eliminated the wheat | Wheat was not eliminated | eliminated annual bluegrass | about 10 times | reduced in proportion to the rate |  |
| CCOC(=O)C1=NN(c2ccc(Cl)cc2Cl)C(C)(C(=O)OCC)C1 (stereo not drawn) [Mefenpyr-diethyl, ethyl 1-(2,4-dichlorophenyl)-5-(ethoxycarbonyl)-5-methyl-2-pyrazoline-3-carboxylate] |  |  |  |  |  | does not have a safening effect |
